Results on nine compounds are retold here after US8648063B2, “Potentiation of cancer chemotherapy by 7-(2, 5-dihydro-4-imidazo [1, 2-a] pyridine-3-yl-2,5-dioxo-1H-pyrrol-3-yl)-9-fluoro-1,2,3,4 tetrahydro -2-(1-piperidinyl-carbonyl)-pyrrolo [3,2,1-jk] [1,4] benzodiazepine” (Eli Lilly and Company, priority 2007, dated 2014).

Assay [1] concerns A2780. The assay is described as follows: Caspase-3/7 apoptosis assay (Apo-ONE) in A2780. The class given is cell-based, human. An excerpt:
(§1) Apoptosis or programmed cell death is characterized by a set of biochemical reactions, one of which is the induction of caspases. Activated caspases are proteases that participate in a cascade of cleavage events that disable key enzymes responsible for cell homeostasis and repair. Caspases 3 and 7 play key effector roles in apoptosis and can be detected and measured by a fluorescent biochemical assay. The increase of Caspase-3/7 activity in cells is directly correlated to apoptotic activity. (D. W. Nicholson, et al., Nature, 376, 37-43 (1995)) The Promega Apo-ONE Homogeneous Caspase-3/7 Assay Kit was used (Catalog #G7791). The assay buffer consists of 30 mM HEPES (N-(2-hydroxyethyl)piperazine-M-(2-ethanesulfonic acid) pH 7.4, 150 mM NaCl, 50 mM KCl, 10 mM MgCl2, 0.4 mM EGTA (ethylene glycol tetraacetic acid), 0.5% Nonidet P40 (octylphenolpoly(ethyleneglycol ether)), 0.1% CHAPS (3-[(3-Cholamidopropyl)dimeth-ylammonio]-1-propanesulfonate hydrate and 10% sucrose, which lyses/permeabilizes cultured cells and a caspase 3/7 substrate, Z-DEVD (Z-Asp(OMe)-Glu(OMe)-Val-Asp(OMe)), coupled to a profluorescent rhodamine 110. When the buffer-substrate mixture is added to a test sample, the cleavage and subsequent removal of the DEVD peptides by caspase 3/7 activity results in intense fluorescence of the rhodamine 110 leaving group, which is detected by excitation at 499 nm. The amount of fluorescent product is proportional to the amount of caspase 3/7 cleavage activity in the sample.
(§2) To measure the apoptotic effect of test compounds, tumor cells are plated at 1×10^4 cells per well in 96 well plates and incubated overnight at 37° C., with 5% CO2. Tumor cells are treated with test compound at desired concentrations in triplicate, including untreated/negative control wells. […] At the end of the incubation period, a mixture of the assay buffer and substrate is added to each sample well. The fluorescence in each well is measured at an excitation wavelength of 485+/−20 nm and an emission wavelength of 530+/−25 nm. The % increase of caspase activity in treated cells is calculated relative to untreated controls.
(§3) The data in Tables 1-12 are expressed as % increase of caspase activity relative to untreated controls unless otherwise noted.

In assay [2] the test system is HCT-116. The assay is described as follows: Caspase-3/7 apoptosis assay (Apo-ONE) in HCT-116. The class given is cell-based, human. The conditions noted are these: 48 hrs.
Text: as §1
(§4) To measure the apoptotic effect of test compounds, tumor cells are plated at 1×10^4 cells per well in 96 well plates and incubated overnight at 37° C., with 5% CO2. Tumor cells are treated with test compound at desired concentrations in triplicate, including untreated/negative control wells. The assay plates are re-incubated for 48 hrs. At the end of the incubation period, a mixture of the assay buffer and substrate is added to each sample well. The fluorescence in each well is measured at an excitation wavelength of 485+/−20 nm and an emission wavelength of 530+/−25 nm. The % increase of caspase activity in treated cells is calculated relative to untreated controls.
as §3

Assay [3] relates to Colo-205. Nature of the assay: Caspase-3/7 apoptosis assay (Apo-ONE) in Colo-205. The class given is cell-based, human. The conditions noted are these: 48 hrs.
Text: as §1, §4, §3

Assay [4] relates to AGS. Nature of the assay: Caspase-3/7 apoptosis assay (Apo-ONE) in AGS. The following applies: Cmpd I 900 nM. The class given is cell-based.
Text: as §1, §2, §3

Assay [5] deals with MKN 45. The assay is described as follows: Caspase-3/7 apoptosis assay (Apo-ONE) in MKN 45. The class given is cell-based.
Text: as §1, §2, §3

The subject of assay [6] is A549. Nature of the assay: Caspase-3/7 apoptosis assay (Apo-ONE) in A549. The class given is cell-based. The following applies: Compound I 300 nM, 48 hrs.
Text: as §1, §4, §3

For assay [7], the system named is A2780 human ovarian carcinoma xenografts. Nature of the assay: Tumor growth delay, A2780 xenografts. The following applies: cisplatin 5 mg/kg IP, Compound I 5 mg/kg IV, alone or combined, 3 cycles separated by 7 days, time to 1000 mm^3 vs control. The class given is in vivo, CD-1 nu/nu mice. The procedure: (§5) Cultured cells are implanted subcutaneously in the rear flank of female CD-1 nu/nu strain mice which have been acclimated for one week in the animal facility after receipt from the vendor. Mice are randomized into groups of 7 or 8 mice per group and treatment begun when the mean tumor volume reaches ˜100 mm^3 Compound I is dosed IV and the chemotherapeutic agent is given IP. When the agents are given in combination, the chemotherapeutic agent is dosed 60 minutes prior to Compound I. The tumors are measured 2 times per week by electronic calipers to plot growth curves. Tumor growth delay is the increase in median time it takes for a tumor to reach 1000 mm^3 in volume when compared to a control group. Animals are also monitored for fluctuations in body weight and survival.

For assay [8], the system named is NCI-H460. Nature of the assay: Caspase-3/7 apoptosis assay (Apo-ONE) in NCI-H460. The class given is cell-based, human. The conditions noted are these: 48 hrs.
Text: as §1, §4, §3

In assay [9] the test system is Calu-6. The assay is described as follows: Caspase-3/7 apoptosis assay (Apo-ONE) in Calu-6. The class given is cell-based. The conditions noted are these: 48 hrs.
Text: as §1, §4, §3

In assay [10] the test system is NCI-H460 human non-small cell lung cancer xenografts. Nature of the assay: Tumor growth delay, NCI-H460 xenografts. The following applies: Compound I 5 mg/kg IV, time to 1000 mm^3 vs control. The class given is in vivo, CD-1 nu/nu mice. How it is done: as §5
Assay [11] concerns Colo-205 human colorectal carcinoma xenografts. Nature of the assay: Tumor growth delay, Colo-205 xenografts. The class given is in vivo, CD-1 nu/nu mice. The conditions noted are these: cisplatin 5 mg/kg IP, Compound I 5 mg/kg IV, alone or combined, 3 cycles separated by 7 days, time to 1000 mm^3 vs control. The procedure: as §5
Assay [12] concerns SKOV3. Nature of the assay: Caspase-3/7 apoptosis assay (Apo-ONE) in SKOV3. The class given is cell-based. The conditions noted are these: Cmpd I 300 nM, Doxorubicin 1 μM, 48 hrs.
Text: as §1, with “The amount of fluorescent product is proportional to the amount of caspase 3/7 cleavage activity in the sample.” left out

In assay [13] the test system is KATO III. Nature of the assay: Caspase-3/7 apoptosis assay (Apo-ONE) in KATO III. The following applies: Cmpd I 600 nM, Cisplatin 10 μM, 48 hrs. The class given is cell-based.
Text: as §1, with “The amount of fluorescent product is proportional to the amount of caspase 3/7 cleavage activity in the sample.” left out

The test system of assay [14] is HCT-116 human colorectal carcinoma xenografts. The assay is described as follows: Tumor growth delay, HCT-116 xenografts. The class given is in vivo, CD-1 nu/nu mice. The conditions noted are these: cisplatin 10 mg/kg IP, Compound I 5 mg/kg IV, alone or combined, 3 cycles separated by 7 days, time to 1000 mm^3 vs control. How it is done: as §5
[15] abbreviates: Compound I 330 nM, CPT-11 20 nM, 48 hrs.
Where [16] appears, read: Compound I 330 nM, CPT-11 20 nM.
[17] abbreviates: Cmpd I 300 nM, 5-FU 5 μM, plates incubated for 72 hours.
[18] abbreviates: Cisplatin 5 μM, plates incubated for 72 hours.
[19] abbreviates: NCI H-460, Cmpd I 300 nM, Etoposide 1 μM.
The mark [20] stands for this setting: NCI H-460, Cmpd I 300 nM, Gemcitabine 50 nM.
The mark [21] stands for this setting: NCI H-460, Cmpd I 300 nM, Pemetrexed 500 nM.
[22] abbreviates: NCI-H460, Compound I 100 nM, carboplatin 10 μM.
The mark [23] stands for this setting: NCI-H460, Compound I 300 nM, cisplatin 1 μM.
Setting [24] is: Cmpd I 300 nM, Carboplatin 5 μM, plates incubated for 72 hours.
[25] abbreviates: Compound I 30 nM, pemetrexed 60 nM, 48 hrs.
Setting [26] is: Compound I 60 nM, cisplatin 5 μM, 48 hrs.
Where [27] appears, read: Cmpd I 60 nM, Gemcitabine 30 nM.
Where [28] appears, read: Compound I 30 nM, pemetrexed 60 nM.
The mark [29] stands for this setting: Compound I 300 nM, cisplatin 5 μM.
[30] abbreviates: Calu 6, Cmpd I 33 nM, Cisplatin 2 μM.
Where [31] appears, read: Calu-6, Compound I 30 nM, pemetrexed 60 nM.
[32] abbreviates: Cmpd I 600 nM, Cisplatin 10 μM, 48 hrs.
Where [33] appears, read: Carboplatin 50 mg/kg IP, alone or combined, every 14 days × 3 cycles.
Setting [34] is: Compound I 110 nM, cisplatin 5 μM.

As for `CCc1c2c(nc3ccc(OC(=O)N4CCC(N5CCCCC5)CC4)cc13)-c1cc3c(c(=O)n1C2)COC(=O)[C@]3(O)CC` [CPT-11, irinotecan, reference compound], the “% increase of caspase activity relative to untreated controls” value stood at 153% in assay [1] (setting [15]); 50% in [2] (setting [16]); 38% in [3] (Compound I 33 nM, CPT-11 20 nM).

For `O=c1[nH]cc(F)c(=O)[nH]1` [Compound 5-FU, 5-fluorouracil, reference compound], the “% increase of caspase activity relative to untreated controls” value is 133% in [4] (5-FU 3 μM, 48 hrs); 55% in assay [2] (Cmpd I 12 nM, 5-FU 5 μM); 415% in assay [5] (setting [17]).

Consider `O=C1NC(=O)C(c2cnc3ccccn23)=C1c1cn2c3c(cc(F)cc13)CN(C(=O)N1CCCCC1)CC2` [Compound I, 7-(2,5-dihydro-4-imidazo[1,2-a]pyridine-3-yl-2,5-dioxo-1H-pyrrol-3-yl)-9-fluoro-1,2,3,4-tetrahydro-2-(1-piperidinyl-carbonyl)-pyrrolo[3,2,1-jk][1,4]benzodiazepine], for which the “% increase of caspase activity relative to untreated controls” value in assay [4] (5-FU 3 μM, 48 hrs) was determined as 0%; in [4] (setting [18]), 0%; in [6] (carboplatin 10 μM) it was 52%; in assay [6] (cisplatin 1 μM), 80%; in assay [8] (setting [19]), 222%; in assay [8] (setting [20]) it was 186%. For the same compound, the “% increase of caspase activity relative to untreated controls” value in assay [8] (setting [21]) was 38%; in assay [8] (setting [22]), 122%; in [8] (setting [23]) it was 99%; in assay [1] (setting [24]) it was 55%; in assay [1] (setting [25]), 10%; in assay [1] (setting [26]) it was 0%. For the same compound, the “% increase of caspase activity relative to untreated controls” value is given as 1% in assay [1] (setting [15]); 47% in assay [2] (Cmpd I 12 nM, 5-FU 5 μM); 0% in assay [2] (setting [27]); 0% in assay [2] (setting [28]); 16% in [2] (setting [29]); 53% in assay [2] (setting [16]). The “% increase of caspase activity relative to untreated controls” value in [9] (setting [30]) is 154%; in [9] (setting [31]) it was 139%; in [5] (setting [17]) it was 105%; in [5] (setting [32]) it was 162%; in [3] (Compound I 33 nM, CPT-11 20 nM), 45%; in [3] (setting [34]), 12%. In addition, the “% increase of caspase activity relative to untreated controls” value is 0% in [12] and 48% in [13]. The “Tumor Growth Delay Mean ± Standard Error” value was -0.3 ± 1.4 days in assay [7]; 3 ± 1.4 days in assay [10] (setting [33]); 1.4 ± 3.8 days in assay [10] (carboplatin 10 mg/kg IP, pemetrexed 300 mg/kg IP, every 14 days for 3 cycles); 10.9 ± 2.2 days in assay [11]; 2 ± 2.2 days in assay [14].

As for `COc1cccc2c1C(=O)c1c(O)c3c(c(O)c1C2=O)C[C@@](O)(C(=O)CO)C[C@@H]3O[C@H]1C[C@H](N)[C@H](O)[C@H](C)O1` [Doxorubicin, doxorubicin, reference compound], in assay [12], the “% increase of caspase activity relative to untreated controls” value is given as 184%.

Turning to `COc1cc([C@@H]2c3cc4c(cc3[C@@H](O[C@@H]3O[C@@H]5CO[C@@H](C)O[C@H]5[C@H](O)[C@H]3O)[C@H]3COC(=O)[C@H]23)OCO4)cc(OC)c1O` [Etoposide, etoposide, reference compound], the “% increase of caspase activity relative to untreated controls” value in assay [8] (setting [19]) stood at 251%.

For the compound `Nc1ccn([C@@H]2O[C@H](CO)[C@@H](O)C2(F)F)c(=O)n1` [Gemcitabine, reference compound], the “% increase of caspase activity relative to untreated controls” value in assay [8] (setting [20]) turned out to be 1187%; in [2] (setting [27]) it was 324%.

Regarding `Nc1nc2[nH]cc(CCc3ccc(C(=O)N[C@@H](CCC(=O)O)C(=O)O)cc3)c2c(=O)[nH]1` [Pemetrexed, pemetrexed, reference compound], the “% increase of caspase activity relative to untreated controls” value came out at 185% in [8] (setting [21]), 0% in [1] (setting [25]), 23% in assay [2] (setting [28]) and 24% in assay [9] (setting [31]).

`N.N.O=C([O-])C1(C(=O)[O-])CCC1.[Pt+2]` [carboplatin, reference compound]: the “% increase of caspase activity relative to untreated controls” value is 14% in assay [6] (carboplatin 10 μM), 16% in assay [8] (setting [22]) and 78% in [1] (setting [24]). In [10] (setting [33]), the “Tumor Growth Delay Mean ± Standard Error” value was determined as 2 ± 2.9 days.

Turning to `N.N.[Cl][Pt][Cl]` [cisplatin, reference compound], the “% increase of caspase activity relative to untreated controls” value worked out at 147% in assay [4] (setting [18]); 4% in assay [6] (cisplatin 1 μM); 47% in assay [8] (setting [23]); 1.5% in [1] (setting [26]); 36% in assay [2] (setting [29]); 97% in [9] (setting [30]). The “% increase of caspase activity relative to untreated controls” value in [5] (setting [32]) stood at 359%; in assay [3] (setting [34]), 8%; in assay [13] it was 389%. The “Tumor Growth Delay Mean ± Standard Error” value in [7] was 5 ± 1.6 days; in [11], 18 ± 3.5 days; in [14], 23 ± 10.3 days.
